Biological target: PDE4 (Homo sapiens, UniProt Q07343)
Assay: PDE4 Assay Procedure ([3H]-cAMP SPA)
Type: biochemical
Details: 15 nM [3H]-cAMP, 1 hour at room temperature, SPA beads; read-out: HPDE4B or IC50 PDE4
Experimental: Compounds to be tested were resuspended in DMSO at a stock concentration of 1 mM. […] These dilutions were done in 96-well plates. In some cases, plates containing diluted compounds were frozen before being assayed. In these cases, the plates were thawed at room temperature and stirred for 15 minutes.
Ten microliters of the diluted compounds were poured into a “low binding” assay plate. […] The reaction was initiated by adding ten microliters of a solution containing PDE4. The plate was then incubated under stirring for 1 hour at room temperature. After incubation the reaction was stopped with 50 microlitres of SPA beads, and the reaction was allowed to incubate for another 20 minutes at room temperature before measuring radioactivity using standard instrumentation.
The reaction mixture was prepared by adding 90 ml of H2O to 10 ml of 10× assay buffer (500 mM Tris pH 7.5, 83 mM MgCl2, 17 mM EGTA), and 40 microlitres 1 μCi/μL [3H]-cAMP. SPA beads solution was prepared by adding 500 mg to […] H2O for a final concentration of 20 mg/ml beads and 18 mM zinc sulphate.

Chain of PDE4 (Q07343 324-700 limits assumed): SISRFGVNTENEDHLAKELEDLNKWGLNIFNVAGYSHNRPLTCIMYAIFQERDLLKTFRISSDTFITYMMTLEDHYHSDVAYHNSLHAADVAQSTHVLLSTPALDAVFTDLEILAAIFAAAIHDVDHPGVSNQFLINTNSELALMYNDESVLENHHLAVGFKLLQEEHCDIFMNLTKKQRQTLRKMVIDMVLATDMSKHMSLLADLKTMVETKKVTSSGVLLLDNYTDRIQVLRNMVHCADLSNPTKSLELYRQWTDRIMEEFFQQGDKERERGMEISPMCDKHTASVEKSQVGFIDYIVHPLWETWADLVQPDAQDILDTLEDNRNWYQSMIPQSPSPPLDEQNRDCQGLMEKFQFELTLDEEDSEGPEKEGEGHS

Structure (SMILES)	IC50
CCCC(=O)OCOC(=O)c1c(-c2ccccc2)nn(CC)c(=O)c1Nc1cccnc1 [Example 17, (Butyryloxy)methyl 1-ethyl-6-oxo-3-phenyl-5-(pyridin-3-ylamino)-1,6-dihydropyridazine-4-carboxylate]	3.6 nM
CCn1nc(-c2ccccc2)c(C(=O)OC2OC(=O)c3ccccc32)c(Nc2cccnc2)c1=O (stereo not drawn) [Example 18, 3-Oxo-1,3-dihydro-2-benzofuran-1-yl 1-ethyl-6-oxo-3-phenyl-5-(pyridin-3-ylamino)-1,6-dihydropyridazine-4-carboxylate]	2.1 nM
CCn1nc(-c2ccccc2)c(C(=O)OCOC(C)=O)c(Nc2cccnc2)c1=O [Example 19, (Acetyloxy)methyl 1-ethyl-6-oxo-3-phenyl-5-(pyridin-3-ylamino)-1,6-dihydropyridazine-4-carboxylate]	11 nM
CCn1nc(-c2ccccc2)c(C(=O)OCOC(=O)C(C)(C)C)c(Nc2cnccc2C)c1=O [Example 26, [(2,2-dimethylpropanoyl)oxy]methyl 1-ethyl-5-[(4-methylpyridin-3-yl)amino]-6-oxo-3-phenyl-1,6-dihydropyridazine-4-carboxylate]	2.3 nM
CCOC(=O)OC(C)OC(=O)c1c(-c2ccccc2)nn(CC)c(=O)c1Nc1cnccc1C (stereo not drawn) [Example 27, 1-[(Ethoxycarbonyl)oxy]ethyl 1-ethyl-5-[(4-methylpyridin-3-yl)amino]-6-oxo-3-phenyl-1,6-dihydropyridazine-4-carboxylate]	9.1 nM
CCn1nc(-c2cccc(C)c2)c(C(=O)OCOC(=O)C(C)(C)C)c(Nc2cccnc2)c1=O [Example 35, [(2,2-Dimethylpropanoyl)oxy]methyl 1-ethyl-3-(3-methylphenyl)-6-oxo-5-(pyridin-3-ylamino)-1,6-dihydropyridazine-4-carboxylate]	2.2 nM
CCn1nc(-c2ccc(C)cc2)c(C(=O)OCOC(=O)C(C)(C)C)c(Nc2cccnc2)c1=O [Example 68, [(2,2-Dimethylpropanoyl)oxy]methyl 1-ethyl-3-(4-methylphenyl)-6-oxo-5-(pyridin-3-ylamino)-1,6-dihydropyridazine-4-carboxylate]	5.7 nM
CCn1nc(-c2ccccc2)c(C(=O)OC(C)OC(=O)OC2CCCCC2)c(Nc2cnccc2C)c1=O (stereo not drawn) [Example 76, 1-{[(Cyclohexyloxy)carbonyl]oxy}ethyl 1-ethyl-5-[(4-methylpyridin-3-yl)amino]-6-oxo-3-phenyl-1,6-dihydropyridazine-4-carboxylate]	4.6 nM
CCOC(=O)COC(=O)c1c(-c2ccsc2)nn(CC)c(=O)c1Nc1cnccc1C [Example 122, 2-Ethoxy-2-oxoethyl 1-ethyl-5-[(4-methylpyridin-3-yl)amino]-6-oxo-3-(3-thienyl)-1,6-dihydropyridazine-4-carboxylate]	3.4 nM
CCn1nc(-c2ccccc2)c(C(=O)OCc2oc(=O)oc2C)c(Nc2cnccc2C)c1=O [Example 142, (5-Methyl-2-oxo-1,3-dioxol-4-yl)methyl 1-ethyl-5-[(4-methylpyridin-3-yl)amino]-6-oxo-3-phenyl-1,6-dihydropyridazine-4-carboxylate]	1.2 nM

These reach a lower IC50. Values come first.

IC50	Structure (SMILES)
0.3 nM	CCn1nc(-c2ccccc2)c(C(=O)OC(C)OC(=O)OC2CCCCC2)c(Nc2cccnc2)c1=O (single isomer, unassigned; (-)) [Example 132, (−)-1-{[(Cyclohexyloxy)carbonyl]oxy}ethyl 1-ethyl-6-oxo-3-phenyl-5-(pyridin-3-ylamino)-1,6-dihydropyridazine-4-carboxylate]
0.22 nM	CCn1nc(-c2ccccc2)c(C(=O)OCC(=O)OCc2ccccc2)c(Nc2cccnc2)c1=O [Example 16, 2-(Benzyloxy)-2-oxoethyl 1-ethyl-6-oxo-3-phenyl-5-(pyridin-3-ylamino)-1,6-dihydropyridazine-4-carboxylate]
0.94 nM	CCn1nc(-c2ccccc2)c(C(=O)OCOC(=O)C(C)(C)C)c(Nc2cccnc2)c1=O [Example 23, [(2,2-Dimethylpropanoyl)oxy]methyl 1-ethyl-6-oxo-3-phenyl-5-(pyridin-3-ylamino)-1,6-dihydropyridazine-4-carboxylate]
0.07 nM	CCn1nc(-c2ccccc2)c(C(=O)OCOC(=O)C(C)(C)C)c(Nc2cncc3ccccc23)c1=O [Example 31, [(2,2-Dimethylpropanoyl)oxy]methyl 1-ethyl-5-(isoquinolin-4-ylamino)-6-oxo-3-phenyl-1,6-dihydropyridazine-4-carboxylate]
0.1 nM	CCn1nc(-c2ccccc2)c(C(=O)OCCl)c(Nc2cncc3ccccc23)c1=O [Example 164, Chloromethyl 1-ethyl-5-(isoquinolin-4-ylamino)-6-oxo-3-phenyl-1,6-dihydropyridazine-4-carboxylate]

— patent publication US20090029996A1, “Pyridazin-3(2H)-One Derivatives And Their Use As Pde4 Inhibitors” (priority 2004, published 2009)
